# pIC50: −log10 of the molar value.
# Target: Tie-2 (Homo sapiens, UniProt Q02763)
# Experiment: Tie-2 tyrosine kinase activity assay (luciferase/luciferin ATP consumption with pEY substrate, or 33P-ATP incorporation)
# Format: biochemical
# Details: human enzyme Tie-2
# Summary of the method: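 Values are IC50 categories (A <50 nM to D ≥10,000 nM), with Ki obtainable by fitting rates to a tight-binding model. Assay formats: 33P-ATP phosphate transfer to adsorbed generic substrate counted by scintillation, or luciferase-detected ATP depletion using pEY.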
# Tie-2, sequence (Q02763 23-1124): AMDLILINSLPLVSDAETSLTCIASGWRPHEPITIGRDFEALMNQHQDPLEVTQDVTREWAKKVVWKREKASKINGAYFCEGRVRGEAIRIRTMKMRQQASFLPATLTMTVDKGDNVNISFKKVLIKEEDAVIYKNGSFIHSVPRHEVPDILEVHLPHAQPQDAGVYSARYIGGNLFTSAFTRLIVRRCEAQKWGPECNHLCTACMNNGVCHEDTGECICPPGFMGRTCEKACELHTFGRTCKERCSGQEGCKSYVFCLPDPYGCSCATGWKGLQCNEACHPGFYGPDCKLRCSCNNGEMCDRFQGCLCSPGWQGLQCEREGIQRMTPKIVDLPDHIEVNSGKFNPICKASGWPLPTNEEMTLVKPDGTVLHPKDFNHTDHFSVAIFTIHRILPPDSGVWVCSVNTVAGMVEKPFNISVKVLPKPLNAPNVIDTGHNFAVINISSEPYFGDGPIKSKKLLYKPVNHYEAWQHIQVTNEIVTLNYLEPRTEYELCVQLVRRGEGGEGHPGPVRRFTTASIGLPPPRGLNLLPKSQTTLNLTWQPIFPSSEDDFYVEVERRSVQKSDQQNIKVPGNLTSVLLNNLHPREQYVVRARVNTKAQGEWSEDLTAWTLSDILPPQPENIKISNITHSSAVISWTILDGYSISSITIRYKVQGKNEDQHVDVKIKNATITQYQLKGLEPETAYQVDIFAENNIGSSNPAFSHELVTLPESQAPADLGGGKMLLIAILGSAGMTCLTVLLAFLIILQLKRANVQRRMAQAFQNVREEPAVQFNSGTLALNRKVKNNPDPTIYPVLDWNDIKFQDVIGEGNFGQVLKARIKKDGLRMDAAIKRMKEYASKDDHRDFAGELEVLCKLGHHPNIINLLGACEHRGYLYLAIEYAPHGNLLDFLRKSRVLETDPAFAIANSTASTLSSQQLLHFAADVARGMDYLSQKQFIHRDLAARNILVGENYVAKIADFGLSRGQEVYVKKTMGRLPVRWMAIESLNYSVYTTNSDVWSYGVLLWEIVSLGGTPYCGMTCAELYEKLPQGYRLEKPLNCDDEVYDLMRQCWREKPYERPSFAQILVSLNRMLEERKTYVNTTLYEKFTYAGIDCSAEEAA
row,pIC50,SMILES
1,6.00 to 7.30,"CC1CN(c2nccnc2OCc2ccncc2)CC(C)N1C(=O)Nc1cccc(C(F)(F)F)c1 (stereo not shown) [Example 65, 2,6-dimethyl-4-{3-[(pyridin-4-ylmethyl)oxy]pyrazin-2-yl}-N-[3-(trifluoromethyl)phenyl]piperazine-1-carboxamide]"
2,> 7.30,"CCN1CCC(OC(=O)Nc2cc(COc3nsnc3N3CCN(C(=O)Nc4cc(C(F)(F)F)cc(C(F)(F)F)c4)CC3)ccn2)CC1 [Example 157, 1-ethylpiperidin-4-yl {4-[({4-[4-({[3,5-bis(trifluoromethyl)phenyl]amino}carbonyl)piperazin-1-yl]-1,2,5-thiadiazol-3-yl}oxy)methyl]pyridin-2-yl}carbamate]"
3,≤ 5.00,"CCC(=O)N1CCN(c2ncccc2OCc2ccnc(N)n2)CC1 [Example 208, 4-({[2-(4-propanoylpiperazin-1-yl)pyridin-3-yl]oxy}methyl)pyrimidin-2-amine]"
4,> 7.30,"CCc1cccc(NC(=O)N2CCN(c3nc(Cl)ccc3OCc3ccnc(N)n3)CC2)c1 [Example 237, 4-(3-{[(2-aminopyrimidin-4-yl)methyl]oxy}-6-chloropyridin-2-yl)-N-(3-ethylphenyl)piperazine-1-carboxamide]"
5,6.00 to 7.30,"CN(C)CCNc1nccc(COc2nsnc2N2CCN(C(=O)Nc3cc(C(F)(F)F)cc(C(F)(F)F)c3)CC2)n1 [Example 119, N-[3,5-bis(trifluoromethyl)phenyl]-4-(4-{[(2-{[2-(dimethylamino)ethyl]amino}pyrimidin-4-yl)methyl]oxy}-1,2,5-thiadiazol-3-yl)piperazine-1-carboxamide]"
6,6.00 to 7.30,"CC1CN(c2nsnc2OCc2ccncc2)CC(C)N1C(=O)Nc1cc(C(F)(F)F)cc(C(F)(F)F)c1 (stereo not shown) [Example 68, N-[3,5-bis(trifluoromethyl)phenyl]-2,6-dimethyl-4-{4-[(pyridin-4-ylmethyl)oxy]-1,2,5-thiadiazol-3-yl}piperazine-1-carboxamide]"
7,> 7.30,"CC(=O)Nc1nccc(COc2nsnc2N2CCN(C(=O)Nc3cc(C(F)(F)F)cc(C(F)(F)F)c3)CC2)n1 [Example 124, 4-[4-({[2-(acetylamino)pyrimidin-4-yl]methyl}oxy)-1,2,5-thiadiazol-3-yl]-N-[3,5-bis(trifluoromethyl)phenyl]piperazine-1-carboxamide]"
8,6.00 to 7.30,"Nc1nccc(COc2nsnc2N2CCN(C(=O)Cc3cc(C(F)(F)F)cc(C(F)(F)F)c3)CC2)n1 [Example 274, 4-({[4-(4-{[3,5-bis(trifluoromethyl)phenyl]acetyl}piperazin-1-yl)-1,2,5-thiadiazol-3-yl]oxy}methyl)pyrimidin-2-amine]"
9,5.00 to 6.00,"O=C(Nc1cc(C(F)(F)F)cc(C(F)(F)F)c1)Nc1cc(COc2nsnc2N2CCN(C(=O)Nc3cc(C(F)(F)F)cc(C(F)(F)F)c3)CC2)ccn1 [Example 130, N-[3,5-bis(trifluoromethyl)phenyl]-4-{4-[({2-[({[3,5-bis(trifluoromethyl)phenyl]amino}carbonyl)amino]pyridin-4-yl}methyl)oxy]-1,2,5-thiadiazol-3-yl}piperazine-1-carboxamide]"
10,> 7.30,"CNc1nccc(COc2nsnc2N2CCN(C(=O)Nc3cc(C(F)(F)F)cc(C(F)(F)F)c3)CC2)n1 [Example 108, N-[3,5-bis(trifluoromethyl)phenyl]-4-[4-({[2-(methylamino)pyrimidin-4-yl]methyl}oxy)-1,2,5-thiadiazol-3-yl]piperazine-1-carboxamide]"
11,> 7.30,"CCc1cc(CC)cc(NC(=O)N2CCN(c3ncccc3OCc3ccnc(N)n3)CC2)c1 [Example 189, 4-(3-{[(2-aminopyrimidin-4-yl)methyl]oxy}pyridin-2-yl)-N-(3,5-diethylphenyl)piperazine-1-carboxamide]"
12,6.00 to 7.30,"CSc1cccc(NC(=O)N2CCN(c3nsnc3OCc3ccncc3)CC2C)c1 (stereo not shown) [Example 51, 2-methyl-N-[3-(methylthio)phenyl]-4-{4-[(pyridin-4-ylmethyl)oxy]-1,2,5-thiadiazol-3-yl}piperazine-1-carboxamide]"
13,5.00 to 6.00,"O=C(Nc1cc(C(F)(F)F)cc(C(F)(F)F)c1)N1CCN(c2nsnc2OCc2ccnc(Cl)c2)CC1 [Example 83, N-[3,5-bis(trifluoromethyl)phenyl]-4-(4-{[(2-chloropyridin-4-yl)methyl]oxy}-1,2,5-thiadiazol-3-yl)piperazine-1-carboxamide]"
14,≤ 5.00,Cc1cc(COc2nsnc2N2CCN(C(=O)Nc3cc(C(F)(F)F)cc(C(F)(F)F)c3)CC2)c2ccccc2n1 [Example 10]
15,6.00 to 7.30,"O=C(Nc1cc(C(F)(F)F)cc(C(F)(F)F)c1)N1CCN(c2nccnc2CCc2ccncc2)CC1 [Example 96, N-[3,5-bis(trifluoromethyl)phenyl]-4-[3-(2-pyridin-4-ylethyl)pyrazin-2-yl]piperazine-1-carboxamide]"
16,> 7.30,"CCc1cccc(NC(=O)N2CCN(c3nsnc3OCc3ccnc(NC(=O)CN4CCN(C)CC4)c3)CC2)c1 [Example 172, N-(3-ethylphenyl)-4-(4-{[(2-{[(4-methylpiperazin-1-yl)acetyl]amino}pyridin-4-yl)methyl]oxy}-1,2,5-thiadiazol-3-yl)piperazine-1-carboxamide]"
17,5.00 to 6.00,"O=C(Nc1cc(C(F)(F)F)cc(C(F)(F)F)c1)N1CCN(c2nsnc2OCc2ccnc(Br)c2)CC1 [Example 87, N-[3,5-bis(trifluoromethyl)phenyl]-4-(4-{[(2-bromopyridin-4-yl)methyl]oxy}-1,2,5-thiadiazol-3-yl)piperazine-1-carboxamide]"

row,pIC50,SMILES
1,> 7.30,"Nc1nccc(COc2ccccc2N2CCN(C(=O)Nc3cc(F)cc(C(F)(F)F)c3)CC2)n1 [Example 272, 4-(2-{[(2-aminopyrimidin-4-yl)methyl]oxy}phenyl)-N-[3-fluoro-5-(trifluoromethyl)phenyl]piperazine-1-carboxamide]"
2,> 7.30,"CCc1cc(Cl)cc(NC(=O)N2CCN(c3ccccc3OCc3ccnc(N)n3)CC2)c1 [Example 281, 4-(2-{[(2-aminopyrimidin-4-yl)methyl]oxy}phenyl)-N-(3-chloro-5-ethylphenyl)piperazine-1-carboxamide]"
3,5.00 to 6.00,CC(C)[C@H]1CC[C@H](C)C[C@@H]1OCC(=O)N1CCN(c2nsnc2OCc2ccncc2)CC1 [Example 24]
4,> 7.30,"O=C(CN1CCOCC1)Nc1cc(COc2nsnc2N2CCN(C(=O)Nc3cc(C(F)(F)F)cc(C(F)(F)F)c3)CC2)ccn1 [Example 151, N-[3,5-bis(trifluoromethyl)phenyl]-4-{4-[({2-[(morpholin-4-ylacetyl)amino]pyridin-4-yl}methyl)oxy]-1,2,5-thiadiazol-3-yl}piperazine-1-carboxamide]"
5,6.00 to 7.30,"O=C(CN1CCCCC1)Nc1cc(COc2nsnc2N2CCN(C(=O)Nc3cc(C(F)(F)F)cc(C(F)(F)F)c3)CC2)ccn1 [Example 152, N-[3,5-bis(trifluoromethyl)phenyl]-4-{4-[({2-[(piperidin-1-ylacetyl)amino]pyridin-4-yl}methyl)oxy]-1,2,5-thiadiazol-3-yl}piperazine-1-carboxamide]"
6,≤ 5.00,"Nc1cc(COc2nsnc2N2CCNCC2)ccn1 [Example 102, 4-{[(4-piperazin-1-yl-1,2,5-thiadiazol-3-yl)oxy]methyl}pyridin-2-amine]"
7,≤ 5.00,"CCCNc1cc(COc2nsnc2N2CCNCC2)ccn1 [Example 106, 4-{[(4-piperazin-1-yl-1,2,5-thiadiazol-3-yl)oxy]methyl}-N-propylpyridin-2-amine]"
8,> 7.30,"CCc1cc(NC(=O)N2CCN(c3nsnc3OCc3ccnc(N)n3)CC2)cc(C(F)(F)F)c1 [Example 260, 4-(4-{[(2-aminopyrimidin-4-yl)methyl]oxy}-1,2,5-thiadiazol-3-yl)-N-[3-ethyl-5-(trifluoromethyl)phenyl]piperazine-1-carboxamide]"
9,> 7.30,"Nc1cc(COc2nsnc2N2CCN(C(=O)Nc3cccc(SC(F)(F)F)c3)CC2)ccn1 [Example 147, 4-(4-{[(2-aminopyridin-4-yl)methyl]oxy}-1,2,5-thiadiazol-3-yl)-N-{3-[(trifluoromethyl)thio]phenyl}piperazine-1-carboxamide]"
10,> 7.30,"CCc1ccc(F)c(NC(=O)N2CCN(c3ncccc3OCc3ccnc(N)n3)CC2)c1 [Example 180, 4-(3-{[(2-aminopyrimidin-4-yl)methyl]oxy}pyridin-2-yl)-N-(5-ethyl-2-fluorophenyl)piperazine-1-carboxamide]"
11,> 7.30,"CCc1cc(CC)cc(NC(=O)N2CCN(c3nsnc3OCc3ccnc(N)n3)CC2)c1 [Example 242, 4-(4-{[(2-aminopyrimidin-4-yl)methyl]oxy}-1,2,5-thiadiazol-3-yl)-N-(3,5-diethylphenyl)piperazine-1-carboxamide]"
12,6.00 to 7.30,"N#Cc1nc(OCc2ccncc2)c(N2CCN(C(=O)Nc3cccc(C(F)(F)F)c3)CC2)nc1C#N [Example 91, 4-{5,6-dicyano-3-[(pyridin-4-ylmethyl)oxy]pyrazin-2-yl}-N-[3-(trifluoromethyl)phenyl]piperazine-1-carboxamide]"
13,> 7.30,"CC(C)c1cccc(NC(=O)N2CCN(c3nccnc3OCc3ccnc(N)n3)CC2)c1 [Example 251, 4-(3-{[(2-aminopyrimidin-4-yl)methyl]oxy}pyrazin-2-yl)-N-[3-(1-methylethyl)phenyl]piperazine-1-carboxamide]"
14,6.00 to 7.30,Cc1cc(C)cc(NC(=O)N2CCN(c3nsnc3OCc3ccncc3)CC2)c1 [Example 8]
15,> 7.30,"O=C(Nc1cc(COc2nsnc2N2CCN(C(=O)Nc3cc(C(F)(F)F)cc(C(F)(F)F)c3)CC2)ccn1)OCCN1CCCC1 [Example 140, 2-pyrrolidin-1-ylethyl {4-[({4-[4-({[3,5-bis(trifluoromethyl)phenyl]amino}carbonyl)piperazin-1-yl]-1,2,5-thiadiazol-3-yl}oxy)methyl]pyridin-2-yl}carbamate]"
16,> 7.30,"Nc1nccc(COc2cccnc2N2CCN(C(=O)Nc3cccc(OC(F)(F)F)c3)CC2)n1 [Example 168, 4-(3-{[(2-aminopyrimidin-4-yl)methyl]oxy}pyridin-2-yl)-N-{3-[(trifluoromethyl)oxy]phenyl}piperazine-1-carboxamide]"
17,6.00 to 7.30,CC1CN(c2nsnc2OCc2ccncc2)CCN1C(=O)Nc1cc(C(F)(F)F)cc(C(F)(F)F)c1 (stereo not shown) [Example 22]

# — patent US8013156B2 (Exelixis, Inc., priority 2003, dated 2011)
